Results from patent US8173631B2, “Cyclic amine compounds” (Daiichi Sankyo Company, Limited, priority 2008, dated 2012).
pIC50: −log10 of the molar value. Values belong to the molecule of their own block, whether it stands above or below them.

Legend:
[1] = molecular target: T1, human calcium-sensing receptor (CaSR) (Homo sapiens, UniProt P41180); assay: Inhibitory activity on calcium-sensing receptor (CaSR), intracellular calcium increase as indicator (FLIPR, CHO/hCaSR); format: cell-based; conditions: CHO cells stably expressing human CaSR; inhibition of intracellular Ca increase induced by extracellular CaCl2
T1 construct: expressed in transfected cells
T1 sequence (P41180 20-1078): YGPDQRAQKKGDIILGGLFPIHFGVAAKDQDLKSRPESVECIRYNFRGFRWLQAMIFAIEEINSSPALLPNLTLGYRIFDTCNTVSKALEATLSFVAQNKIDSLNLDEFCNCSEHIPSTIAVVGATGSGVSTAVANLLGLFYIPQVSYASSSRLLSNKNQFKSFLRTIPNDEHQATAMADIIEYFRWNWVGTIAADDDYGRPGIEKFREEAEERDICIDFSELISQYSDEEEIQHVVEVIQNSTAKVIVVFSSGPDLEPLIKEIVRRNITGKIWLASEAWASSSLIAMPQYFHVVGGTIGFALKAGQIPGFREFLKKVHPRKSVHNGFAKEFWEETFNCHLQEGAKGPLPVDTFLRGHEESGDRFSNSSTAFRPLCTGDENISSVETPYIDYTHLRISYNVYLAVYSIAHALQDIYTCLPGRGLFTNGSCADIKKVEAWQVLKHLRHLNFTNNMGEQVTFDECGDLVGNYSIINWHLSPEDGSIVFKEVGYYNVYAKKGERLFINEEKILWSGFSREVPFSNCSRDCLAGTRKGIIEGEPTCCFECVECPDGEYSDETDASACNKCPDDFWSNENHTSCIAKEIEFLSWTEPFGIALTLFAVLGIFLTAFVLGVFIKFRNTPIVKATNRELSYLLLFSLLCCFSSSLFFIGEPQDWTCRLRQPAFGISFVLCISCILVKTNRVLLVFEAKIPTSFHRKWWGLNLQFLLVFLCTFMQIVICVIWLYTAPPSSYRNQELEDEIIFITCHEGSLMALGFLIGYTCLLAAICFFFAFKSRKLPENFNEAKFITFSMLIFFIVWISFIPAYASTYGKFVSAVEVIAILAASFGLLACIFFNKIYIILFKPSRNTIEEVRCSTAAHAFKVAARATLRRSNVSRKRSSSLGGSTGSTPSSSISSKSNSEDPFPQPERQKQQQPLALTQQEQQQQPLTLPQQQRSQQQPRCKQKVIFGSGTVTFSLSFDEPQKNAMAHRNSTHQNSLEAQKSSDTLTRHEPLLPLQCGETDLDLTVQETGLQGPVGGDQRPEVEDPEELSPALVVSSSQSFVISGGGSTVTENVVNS
How it was run: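 CHO/hCaSR cells loaded with Calcium 3 dye in HEPES/HBSS (Ca/Mg-free, 2.5 mM probenecid, pH 7.4), then preincubated 15 min with compound (final 1.05–10,000 nM). Challenged with CaCl2 ([…]) and fluorescence followed by FLIPR. IC50 derived from the peak-minus-baseline fluorescence increase.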

PTH secretion = assay: Evaluation of PTH secretion promoting activity in a rat (blood serum PTH after oral administration); format: in vivo; conditions: female F344 rat, oral 3 mg/5 mL/kg, Mean ± S.D., n = 3
Description: Evaluation of PTH Secretion Promoting Activity in a Rat
A 10 to 14-week old female F344 rat (Charles River Japan, Inc.) fasted overnight was anesthetized using ether, and blood serum before the administration was prepared by drawing blood from the jugular vein of the animal. Subsequently, the test compound was orally administered at a dose of 3 mg/5 mL/kg using a solvent (0.5% aqueous methyl cellulose solution containing 5% DMA). Blood was drawn from the jugular vein under ether anesthesia at 5, 15, 30, 60, 120, and 240 minutes after the administration of the test compound, and the blood serum was prepared. The blood serum PTH concentration was measured using rat Intact PTH ELISA kit (manufactured by Immutopics, Inc.).

- pIC50 [1]: ≥ 5.50
SMILES: Cc1ccc(C[C@@H]2CCCN2C[C@@H](O)CO[C@H](C)c2cccc(C(F)(F)F)c2CCC(=O)O)cc1F [Example 9, 3-{2-[(1R)-1-({(2R)-3-[(2S)-2-(3-Fluoro-4-methylbenzyl)pyrrolidin-1-yl]-2-hydroxypropyl}oxy)ethyl]-6-(trifluoromethyl)phenyl}propanoic acid]
- Blood Serum PTH (1-84) Concentration, 0 minute (PTH secretion): 87.9 ± 25.5 pg/mL
- Blood Serum PTH (1-84) Concentration, After 5 minutes (PTH secretion): 117.2 ± 32.4 pg/mL
- Blood Serum PTH (1-84) Concentration, After 15 minutes (PTH secretion): 476.5 ± 99.7 pg/mL
- Blood Serum PTH (1-84) Concentration, After 30 minutes (PTH secretion): 235.6 ± 99.1 pg/mL
- Blood Serum PTH (1-84) Concentration, After 60 minutes (PTH secretion): 49.1 ± 16.9 pg/mL
- Blood Serum PTH (1-84) Concentration, After 120 minutes (PTH secretion): 33.6 ± 5.1 pg/mL
- Blood Serum PTH (1-84) Concentration, After 240 minutes (PTH secretion): 117.2 ± 27.7 pg/mL

- pIC50 [1]: ≥ 5.43
SMILES: Cc1ccc(C[C@@H]2CCN2C[C@@H](O)CO[C@H](C)c2ccccc2CCC(=O)O)cc1F [Example 14, 3-{2-[(1R)-1-({(2R)-3-[(2R)-2-(3-Fluoro-4-methylbenzyl)azetidin-1-yl]-2-hydroxypropyl}oxy)ethyl]phenyl}propanoic acid]
- Blood Serum PTH (1-84) Concentration, 0 minute (PTH secretion): 53.3 ± 4.4 pg/mL
- Blood Serum PTH (1-84) Concentration, After 5 minutes (PTH secretion): 195.9 ± 16.9 pg/mL
- Blood Serum PTH (1-84) Concentration, After 15 minutes (PTH secretion): 429.0 ± 111.0 pg/mL
- Blood Serum PTH (1-84) Concentration, After 30 minutes (PTH secretion): 198.2 ± 61.0 pg/mL
- Blood Serum PTH (1-84) Concentration, After 60 minutes (PTH secretion): 41.8 ± 5.8 pg/mL
- Blood Serum PTH (1-84) Concentration, After 120 minutes (PTH secretion): 42.0 ± 8.5 pg/mL
- Blood Serum PTH (1-84) Concentration, After 240 minutes (PTH secretion): 64.2 ± 6.3 pg/mL

- pIC50 [1]: ≥ 5.52
SMILES: CC[C@@H](OC[C@H](O)CN1CCC[C@H]1Cc1ccc(Cl)c(Cl)c1)c1cc(F)c(F)cc1CCC(=O)O [Example 117]

- pIC50 [1]: ≥ 5.46
SMILES: Cc1ccc(C[C@@H]2C[C@@H](F)CN2C[C@@H](O)CO[C@H](C)c2ccccc2CCC(=O)O)cc1F [Example 48]

- pIC50 [1]: ≥ 5.49
SMILES: CC[C@@H](OC[C@H](O)CN1CCC[C@H]1Cc1ccc(C)c(Cl)c1)c1cccc(F)c1CCC(=O)O [Example 138]

- pIC50 [1]: ≥ 5.46
SMILES: Cc1ccc(C[C@@H]2CCCN2C[C@@H](O)CO[C@H](C)c2cccc(F)c2CCC(=O)O)cc1F [Example 6, 3-{2-Fluoro-6-[(1R)-1-({(2R)-3-[(2S)-2-(3-fluoro-4-methylbenzyl)pyrrolidin-1-yl]-2-hydroxypropyl}oxy)ethyl]phenyl}propanoic acid]

- pIC50 [1]: ≥ 5.50
SMILES: CC[C@@H](OC[C@H](O)CN1CCC[C@H]1Cc1ccc(C)c(Cl)c1)c1ccc(Cl)cc1CCC(=O)O [Example 129]

- pIC50 [1]: ≥ 5.48
SMILES: Cc1ccc(C[C@@H]2CCCN2C[C@@H](O)CO[C@H](C)c2cc(F)ccc2CCC(=O)O)cc1Cl [Example 166]

- pIC50 [1]: ≥ 5.49
SMILES: C[C@@H](OC[C@H](O)CN1CCC[C@H]1Cc1ccc(Cl)c(Cl)c1)c1cc(F)ccc1CCC(=O)O [Example 96]
